Literature values in patent US11510895B2, “Compositions and formulations including cabazitaxel and human serum albumin” (Zhuhai Beihai Biotech Co., Ltd., priority 2016, dated 2022).

Key:
human serum proteins = conditions: in vitro
human serum albumin = human serum albumin (Homo sapiens, UniProt P02768); conditions: in vitro
human serum albumin, sequence (P02768 25-609): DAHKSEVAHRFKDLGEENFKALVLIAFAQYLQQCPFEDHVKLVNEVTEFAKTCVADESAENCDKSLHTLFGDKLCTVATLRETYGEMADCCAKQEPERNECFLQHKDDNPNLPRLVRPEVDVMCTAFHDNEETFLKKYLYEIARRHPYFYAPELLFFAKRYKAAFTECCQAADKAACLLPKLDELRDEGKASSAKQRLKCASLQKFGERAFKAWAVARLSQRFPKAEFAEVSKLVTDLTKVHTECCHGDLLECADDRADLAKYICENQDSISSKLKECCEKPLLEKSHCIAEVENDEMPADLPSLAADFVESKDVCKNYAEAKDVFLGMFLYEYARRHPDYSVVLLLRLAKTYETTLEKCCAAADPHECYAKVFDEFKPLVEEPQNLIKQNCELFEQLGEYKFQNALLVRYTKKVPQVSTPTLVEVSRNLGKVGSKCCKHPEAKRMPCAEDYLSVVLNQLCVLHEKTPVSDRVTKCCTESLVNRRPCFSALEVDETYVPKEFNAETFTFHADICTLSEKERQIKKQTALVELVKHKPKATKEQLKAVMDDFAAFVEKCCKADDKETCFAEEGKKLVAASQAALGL

saturability of the binding to human serum proteins (human serum proteins): not saturable up to 50,000 | bound to human serum albumin (human serum albumin): 82% | solubility in alcohol: soluble | solubility in water: practically insoluble
Structure (SMILES): CO[C@H]1C(=O)[C@]2(C)[C@@H](OC)C[C@H]3OC[C@@]3(OC(C)=O)[C@H]2[C@H](OC(=O)c2ccccc2)[C@]2(O)C[C@H](OC(=O)[C@H](O)[C@@H](NC(=O)OC(C)(C)C)c3ccccc3)C(C)=C1C2(C)C [cabazitaxel]
